We go through 30 compounds from patent publication US12404283B2, “c-MYC mRNA translation modulators and uses thereof in the treatment of cancer” (Anima Biotech Inc., priority 2022, dated 2025).

The test system of the assay is c-Myc. The assay is described as follows: c-Myc immunofluorescence assay. The note with it: A549 cells, 24 hours treatment, anti-c-Myc immunofluorescence. The class given is cell-based, human. The method in brief:
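A549 cells grown 48 h, exposed 24 h to rising compound concentrations, then fixed, permeabilised and stained for c-Myc plus DAPI. Nuclear-segmented c-Myc fluorescence quantified by high-content imaging at 20×; EC50 from logistic dose–response fits.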
For `O=C(NCCCN1CCCCC1)c1ccc2c(c1)sc1nc(-c3ccc(CNC4CC4)cc3)nn12` [compound 393, 2-(4-((cyclopropylamino)methyl)phenyl)-N-(3-(piperidin-1-yl)propyl)benzo[4,5]thiazolo [3,2-b][1,2,4]triazole-6-carboxamide], the “Myc Efficacy (−LogEC50)” value is “+++ (+++ ≥6)”.
In the case of `C#CCCC1(CCNC(=O)c2ccc(-c3cn4c(n3)sc3cc(C(=O)NCCCN(CC)CC)ccc34)cc2)N=N1` [compound 322, 2-(4-((2-(3-(but-3-yn-1-yl)-3H-diazirin-3-yl)ethyl)carbamoyl)phenyl)-N-(3-(diethylamino)propyl) benzo[d]imidazo[2,1-b] thiazole-7-carboxamide] it was “+ (+ >3 and <5)”.
In the case of `O=C1CNC(c2ccc(-c3cn4c(n3)sc3cc(C(=O)NC5CCOCC5)ccc34)c(F)c2)C1` (stereo not drawn) [Compound 537, 2-(2-fluoro-4-(4-oxopyrrolidin-2-yl)phenyl)-N-(tetrahydro-2H-pyran-4-yl)benzo[d]imidazo[2,1-b]thiazole-7-carboxamide], the “Myc Efficacy (−LogEC50)” value is listed as “+++ (+++ ≥6)”.
As for `NC(=O)c1cc2sc3nc(-c4ccc(C5CCCN5)cc4F)cn3c2cn1` (stereo not drawn) [Compound 514, 2-(2-fluoro-4-(pyrrolidin-2-yl)phenyl)imidazo[2′,1′:2,3]thiazolo[4,5-c]pyridine-7-carboxamide], the “Myc Efficacy (−LogEC50)” value is reported as “+++ (+++ ≥6)”.
With `O=C(NCCCN1CCC(F)CC1)c1ccc2c(c1)sc1nc(-c3ccc([C@@H]4CCNC4)cc3F)cn12` [Compound 434S, (S)-2-(2-fluoro-4-(pyrrolidin-3-yl)phenyl)-N-(3-(4-fluoropiperidin-1-yl)propyl)benzo[d]imidazo[2,1-b]thiazole-7-carboxamide], the “Myc Efficacy (−LogEC50)” value was “+++ (+++ ≥6)”.
Consider `CCN(CC)CCCNC(=O)c1ccc2c(c1)sc1nc(-c3ccc(CNC4CC4)cc3F)cn12` [compound 331, 2-(4-((cyclopropylamino)methyl)-2-fluorophenyl)-N-(3-(diethylamino)propyl)benzo [d]imidazo[2,1-b]thiazole-7-carboxamide], for which the “Myc Efficacy (−LogEC50)” value is given as “+++ (+++ ≥6)”.
As to `CNC(=O)c1ccc(-c2cn3c(n2)sc2cc(C(=O)NCCOC)ccc23)cc1` [compound 201, N-(2-methoxyethyl)-2-(4-(methylcarbamoyl)phenyl) benzo[d]imidazo[2,1-b]thiazole-7-carboxamide], the “Myc Efficacy (−LogEC50)” value is “+ (+ >3 and <5)”.
In the case of `CNC(=O)c1ccc(-c2cn3c(n2)sc2cc(C(=O)NC4CCNCC4)ccc23)c(F)c1` [compound 363, 2-(2-fluoro-4-(methylcarbamoyl)phenyl)-N-(piperidin-4-yl)benzo[d]imidazo[2,1-b]thiazole-7-carboxamide], the “Myc Efficacy (−LogEC50)” value is “++ (++ ≥5 and <6)”.
For the compound `O=C(NCCCN1CCC(F)CC1)c1ccc2c(c1)sc1nc(-c3ccc([C@H]4CCCO4)cc3F)cn12` [Compound 428R, (R)-2-(2-fluoro-4-(tetrahydrofuran-2-yl)phenyl)-N-(3-(4-fluoropiperidin-1-yl)propyl)benzo[d]imidazo[2,1-b]thiazole-7-carboxamide], the “Myc Efficacy (−LogEC50)” value is “++ (++ ≥5 and <6)”.
On to `CNC(=O)c1ccc2c(c1)sc1nc(-c3ccc(C4CCNC4)cc3F)cn12` (stereo not drawn) [Compound 504, 2-(2-fluoro-4-(pyrrolidin-3-yl)phenyl)-N-methylbenzo[d]imidazo[2,1-b]thiazole-7-carboxamide], for which the “Myc Efficacy (−LogEC50)” value was “+++ (+++ ≥6)”.
The same measure for `CO[C@H]1CN[C@@H](c2ccc(-c3cn4c(n3)sc3cc(C(=O)NC5CCN(C)CC5)ccc34)c(F)c2)C1` (relative stereo) [Compound 532, 2-(2-fluoro-4-((cis)-4-methoxypyrrolidin-2-yl)phenyl)-N-(1-methylpiperidin-4-yl)benzo[d]imidazo[2,1-b]thiazole-7-carboxamide]: “+++ (+++ ≥6)”; for `CNC(=O)c1ccc(-c2cn3c(n2)sc2cc(C(=O)N[C@@H](C)CN)ccc23)cc1` [compound 220, (S)-N-(1-aminopropan-2-yl)-2-(4-(methylcarbamoyl)phenyl) benzo[d]imidazo[2,1-b]thiazole-7-carboxamide]: “+ (+ >3 and <5)”; for `CCN(CC)CCCNC(=O)c1ccc2c(c1)sc1nc(-c3ccc(C(=O)NCCNC)cc3)cn12` [compound 295, N-(3-(diethylamino)propyl)-2-(4-((2-(methylamino)ethyl)carbamoyl)phenyl)benzo[d] imidazo[2,1-b]thiazole-7-carboxamide]: “++ (++ ≥5 and <6)”.
Regarding `O=C(NCCCN1CCC(F)CC1)c1ccc2c(c1)sc1nc(-c3ccc(-c4ncc[nH]4)cc3F)cn12` [compound 482, 2-(2-fluoro-4-(1H-imidazol-2-yl)phenyl)-N-(3-(4-fluoropiperidin-1-yl)propyl)benzo[d]imidazo[2,1-b]thiazole-7-carboxamide], the “Myc Efficacy (−LogEC50)” value is reported as “+++ (+++ ≥6)”.
In the case of `CNC(=O)c1ccc(-c2cn3c(n2)sc2cc(C(=O)NCCCN4CCCCC4)cnc23)cc1` [compound 317, 2-(4-(methylcarbamoyl)phenyl)-N-(3-(piperidin-1-yl)propyl)imidazo[2′,1′:2,3] thiazolo[4,5-b]pyridine-7-carboxamide] it was “+ (+ >3 and <5)”; in that of `NC(=O)c1ccc2c(c1)sc1nc(-c3ccc(C4CCCN4)cc3F)cn12` (stereo not drawn) [Compound 492, 2-(2-fluoro-4-(pyrrolidin-2-yl)phenyl)benzo[d]imidazo[2,1-b]thiazole-7-carboxamide], “+++ (+++ ≥6)”; in that of `O=C(NCCCN1CCC(F)CC1)c1ccc2c(c1)sc1nc(-c3ccc(C4(O)CCNCC4)cc3F)cn12` [Compound 512, 2-(2-fluoro-4-(4-hydroxypiperidin-4-yl)phenyl)-N-(3-(4-fluoropiperidin-1-yl)propyl)benzo[d]imidazo[2,1-b]thiazole-7-carboxamide], “+++ (+++ ≥6)”.
In the case of `O=C(NCCCN1CCCCC1)c1ccc2c(c1)sc1nc(-c3ccc(C4CCCN4)cc3F)cn12` (stereo not drawn) [compound 416, 2-(2-fluoro-4-(pyrrolidin-2-yl)phenyl)-N-(3-(piperidin-1-yl)propyl)benzo[d]imidazo [2,1-b]thiazole-7-carboxamide] it was “+++ (+++ ≥6)”.
Take `NCc1ccc(-c2cn3c(n2)sc2cc(C(=O)NCCCN4CCCCC4)ccc23)c(Cl)c1` [compound 369, 2-(4-(aminomethyl)-2-chlorophenyl)-N-(3-(piperidin-1-yl)propyl)benzo[d]imidazo [2,1-b]thiazole-7-carboxamide]: the “Myc Efficacy (−LogEC50)” value was “+++ (+++ ≥6)”.
In the case of `O=C(NCCCN1CCC(F)CC1)c1ccc2c(c1)sc1nc(-c3ccc(-c4ccn[nH]4)cc3F)cn12` [compound 487, 2-(2-fluoro-4-(1H-pyrazol-5-yl)phenyl)-N-(3-(4-fluoropiperidin-1-yl)propyl)benzo[d]imidazo[2,1-b]thiazole-7-carboxamide] it was “++ (++ ≥5 and <6)”; in that of `CCN(CC)CCCNC(=O)c1ccc2c(c1)sc1nc(-c3ccc(CN)cc3F)nn12` [compound 388, 2-(4-(aminomethyl)-2-fluorophenyl)-N-(3-(diethylamino)propyl) benzo[4,5]thiazolo[3,2-b][1,2,4]triazole-6-carboxamide], “++ (++ ≥5 and <6)”.
In the case of `CNC(=O)c1ccc(-c2cn3c(n2)sc2cc(C(=O)NC[C@H]4COCCO4)ccc23)cc1` [compound 182, (S)-N-((1,4-dioxan-2-yl)methyl)-2-(4-(methylcarbamoyl)phenyl) benzo[d]imidazo[2,1-b]thiazole-7-carboxamide] it was “− (− ≤3)”; in that of `CNC(=O)c1ccc(-c2cn3c(n2)sc2cc(C(=O)NCC4(N(C)C)CCCCC4)ccc23)cc1` [compound 216, N-((1-(dimethylamino)cyclohexyl)methyl)-2-(4-(methylcarbamoyl)phenyl) benzo[d]imidazo[2,1-b]thiazole-7-carboxamide], “+ (+ >3 and <5)”.
Regarding `Cc1cccc(-c2cn3c(n2)sc2cc(C(=O)N4CCNCC4)ccc23)c1` [compound 141, piperazin-1-yl(2-(m-tolyl)benzo[d]imidazo[2,1-b]thiazol-7-yl)methanone], the “Myc Efficacy (−LogEC50)” value was “+ (+ >3 and <5)”.
The same measure for `CNC(=O)c1ccc(-c2cn3c(n2)sc2cc(C(=O)NCC4CCN(C)C4)ccc23)cc1` (stereo not drawn) [compound 176, 2-(4-(methylcarbamoyl)phenyl)-N-((1-methylpyrrolidin-3-yl)methyl)benzo[d]imidazo [2,1-b]thiazole-7-carboxamide]: “− (− ≤3)”; for `CNC(=O)c1ccc(-c2cn3c(n2)sc2cc(NC(=O)C4CCNCC4)ccc23)c(F)c1` [compound 364, N-(2-(2-fluoro-4-(methylcarbamoyl)phenyl)benzo[d]imidazo[2,1-b]thiazol-7-yl)piperidine-4-carboxamide]: “++ (++ ≥5 and <6)”; for `CCN(CC)CCCNC(=O)c1ccc2c(c1)sc1nc(-c3cccc(N4CCOCC4)c3)cn12` [compound 170, N-(3-(diethylamino)propyl)-2-(3-morpholinophenyl)benzo[d] imidazo[2,1-b]thiazole-7-carboxamide]: “++ (++ ≥5 and <6)”.
As for `CCN(CC)CCCNC(=O)c1ccc2c(c1)sc1nc(-c3ccc(CNC4CC4)cc3F)nn12` [compound 395, 2-(4-((cyclopropylamino)methyl)-2-fluorophenyl)-N-(3-(diethylamino)propyl)benzo [4,5]thiazolo[3,2-b][1,2,4]triazole-6-carboxamide], the “Myc Efficacy (−LogEC50)” value was “++ (++ ≥5 and <6)”.
Consider `CCN(CC)CCCNC(=O)c1ccc2c(c1)sc1nc(-c3ccccc3C)cn12` [compound 123, N-(3-(diethylamino)propyl)-2-(o-tolyl)benzo[d]imidazo [2,1-b]thiazole-7-carboxamide], for which the “Myc Efficacy (−LogEC50)” value is “++ (++ ≥5 and <6)”.
For `Cc1cc(-c2cn3c(n2)sc2cc(C(=O)NCCCN4CCC(F)CC4)ccc23)ccn1` [compound 495, N-(3-(4-fluoropiperidin-1-yl)propyl)-2-(2-methylpyridin-4-yl)benzo[d]imidazo[2,1-b]thiazole-7-carboxamide], the “Myc Efficacy (−LogEC50)” value is on record as “+++ (+++ ≥6)”.
